Key:
A53T mutant SNCA = assay: Degradation of HA-tagged A53T mutant SNCA in inducible PC12 cells; assay type: cell-based; details: for degradation of SNCA A53T: Dox 24 h then 48 h, curcumin 10 μM, analogs 1 μM
Procedure: (§1) Expression and intensity of HA-tagged wild-type (WT) or A53T mutant SNCA in inducible PC12 cells are treated with doxycycline (Dox, 2 μg/ml) for 24 h, and then treated with curcumin (10 μM), A2, B3 and C1 (1 μM) for another 48 h (A, C) in the presence or absence of chloroquine (CQ, 20 μM) and wortmannin (WM, 1 μM) (B, D). The expression of HA-SNCA is determined by western blots and quantified from three independent experiments. Corynoxine B (Cory B, 25 μM) is used as a positive control. Relative intensity is normalized to that of ACTB/β-actin. Data are presented as the mean±SD from three independent experiments. *p<0.05 vs. the control (0.1% DMSO).
(§2) N2a, Hela and Hela cells stably expressing 3×-Flag-TFEB are cultured in DMEM supplemented with 10% FBS. SH-SY5Y cells are cultured in DMEM/F12 supplemented with 10% FBS. For drug treatment, the full medium is replaced by fresh Opti-MEM I and then the compounds (in 0.1% DMSO) are added to the cells and incubated for 12 h. Inducible PC12 cells overexpressing SNCA (WT and A53T) (a kind gift from Prof. David C. Rubinsztein at Cambridge University) are grown in DMEM supplemented with 10% horse serum, 5% FBS, 50 μg/ml G418, and 150 μg/ml hygromycin B at 37° C., 10% CO2. Cells are treated with 2 μg/ml doxycycline (Dox) for 24 h to induce SNCA expression. The full medium is changed to Opti-MEM I containing the testing compounds for another 48 h.
(§3) Cells are lysed on ice in 1× Lysis Buffer (9803, Life Technologies) with complete protease inhibitor mixture (04693124001, Roche Applied Science). Animal tissues are homogenized in nine volumes of ice-cold PBS supplemented with protease inhibitors. Cytosolic and nuclear fractions are isolated using protocols similar to those described previously. Anti-Flag or TFEB antibody is added to the whole cell lysates and Dynabeads® Protein G (10003D, Life Technologies) is used for immunoprecipitation. Proteins are separated by 10-15% SDS-PAGE, transferred, and blotted with the antibodies described. The blots are then incubated with secondary antibodies or the Clean-Blot IP Detection Reagent (21230, Thermo Scientific) at room temperature for 1 h. The protein signals are detected by ECL kit (32106, Pierce) and quantified using ImageJ software.
(§4) Inducible PC12 cells are treated with doxycycline (Dox, 2 μg/ml) for 24 h to induce the expression of HA-tagged wild-type (WT) or A53T mutant SNCA, and then treated with curcumin (10 μM), A2, B3 and C1 (1 μM) for another 48 h (FIGS. 8 A, C) in the presence or absence of chloroquine (CQ, 20 μM) and wortmannin (WM, 1 μM) (FIGS. 8 B, D). The expression of HA-SNCA is determined by western blots and quantified from three independent experiments. Corynoxine B (Cory B, 25 μM) is used as a positive control. […] Corynoxine B (Cory B) is used as a positive control.

wild-type (WT) SNCA = assay: Degradation of HA-tagged wild-type SNCA in inducible PC12 cells; assay type: cell-based; details: for degradation of SNCA WT: Dox 24 h then 48 h, curcumin 10 μM, analogs 1 μM
Procedure: as §1, §2, §3, §4

[1] = rat, in vivo, po
Procedure: All animal care and procedures are approved by the Hong Kong Baptist University Committee on the Use of Human and Animal Subjects in Teaching and Research. Adult male Sprague-Dawley (SD) rats weighted 350-400 g are maintained on ad libitum food and water with a 12-hour light/dark cycle in a controlled environment. For short-term treatment, rats (n=6 per group) are orally administered by gavage with C1 (10 mg/kg and 25 mg/kg per day) or vehicle (1% sodium carbonyl methylcellulose (CMC-Na)) for 24 h. For chronic treatment, C1 (10 mg/kg per day) is given by gavage to rats for 21 days. At the end of each treatment, an additional dosage of C1 is given for 6 h before the rats are killed. Livers and major brain regions dissected are snap-frozen in liquid nitrogen.
The average concentration of C1 in brain tissues is 0.26±0.063 μg/g determined by HPLC after oral administration of C1 (10 mg/kg) for 6 h.
Rats receive oral administration of C1 (10 mg/kg) for 21 days. Another dose of C1 is given for 6 h and the average concentration of C1 in brain tissues is 0.849±0.302 μg/g. Then the autophagy markers in the livers and brains are analyzed. Chronic C1 treatment increases the levels of LC3-II in the livers (FIGS. 11 A and B). […] During the treatment procedure, no changes in body weight or behavior abnormalities are observed.

purified His-TFEB = target: T1, purified His-TFEB (Homo sapiens, UniProt P19484); assay: Binding of solid-phase compound to purified recombinant His-TFEB; details: 17 μmol compound powder, RIPA buffer, 2 hours at 4° C.; 55 kDa band by TFEB antibody
T1 construct: purchased ORIGENE TP760282
T1 sequence (P19484 1-476): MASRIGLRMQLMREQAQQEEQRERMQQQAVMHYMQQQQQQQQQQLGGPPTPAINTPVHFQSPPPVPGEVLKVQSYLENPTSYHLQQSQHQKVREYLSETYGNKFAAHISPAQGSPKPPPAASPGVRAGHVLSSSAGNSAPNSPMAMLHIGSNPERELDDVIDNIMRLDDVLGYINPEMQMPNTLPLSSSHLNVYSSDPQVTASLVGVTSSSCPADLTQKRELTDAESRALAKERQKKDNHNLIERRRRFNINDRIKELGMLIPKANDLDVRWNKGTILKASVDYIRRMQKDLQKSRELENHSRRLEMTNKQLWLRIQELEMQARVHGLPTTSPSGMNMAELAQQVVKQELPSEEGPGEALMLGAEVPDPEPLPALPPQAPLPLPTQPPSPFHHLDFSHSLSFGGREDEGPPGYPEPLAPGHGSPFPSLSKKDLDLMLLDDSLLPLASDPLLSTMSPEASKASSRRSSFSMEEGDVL
Procedure: Hela cells stably expressing 3×Flag-TFEB are treated with C1 (1 μM) for 12 h. Endogenous MTOR (A) and YWHA (B) are co-immunoprecipitated with Flag-TFEB. The levels of immunoprecipitated MTOR and YWHA are normalized to their corresponding levels in whole cell lysates (WCL). […] However, when MTOR and YWHA coimmunoprecipitated with Flag-TFEB after C1 treatment, interaction of MTOR and YWHA is decreased as compared with control. […] Furthermore, purified His-TFEB (TP760282, ORIGENE) is diluted in RIPA buffer and 17 μmol curcumin (6.3 mg) or C1 (5 mg) powder is added into TFEB solution and incubated for 2 hours at 4° C. with shaking. The supernatant is discarded after centrifuge. The pellet (compounds and the bound protein) is washes 4 times in RIPA buffer and the bound proteins are eluted by adding 2% SDS sampling buffer. The bound proteins are separated on 10% SDS—polyacrylamide gel and visualized by TFEB antibody (Proteintech).

SMILES	degradation of SNCA A53T (A53T mutant SNCA; inducible PC12 cells)	degradation of SNCA WT (wild-type (WT) SNCA; inducible PC12 cells)	activity in degrading SNCA in presence of wortmannin (WM) or CQ (A53T mutant SNCA; SNCA A53T, WM 1 μM, CQ 20 μM, 1 μM compound)	SNCA clearance, comparison among compounds (A53T mutant SNCA; inducible PC12 cells, SNCA A53T)	passage of the blood-brain barrier (BBB) [1]	activity in degrading SNCA in presence of wortmannin (WM) or CQ (wild-type (WT) SNCA; SNCA WT, WM 1 μM, CQ 20 μM, 1 μM compound)	SNCA clearance, comparison among compounds (wild-type (WT) SNCA; inducible PC12 cells, SNCA WT)	direct binding to purified TFEB (purified His-TFEB)
O=C(/C=C/c1cccc(C(F)(F)F)c1)/C=C/c1cccc(C(F)(F)F)c1 [A2, 1,5-bis(3-(trifluoromethyl)phenyl)penta-1,4-dien-3-one]	significantly degrade	significantly degrade						
O=C(/C=C/c1ccc(O)cc1)/C=C/c1ccc(O)cc1 [B3, 1,5-bis(4-hydroxyphenyl)penta-1,4-dien-3-one]	significantly degrade	significantly degrade						
COc1ccccc1/C=C/C(=O)/C=C/c1ccccc1OC [C1, 1,5-bis(2-methoxyphenyl)penta-1,4-dien-3-one]	significantly degrade	significantly degrade	significantly blocked	best effects	can pass	significantly blocked	best effects	can directly bind
COc1cc(/C=C/C(=O)CC(=O)/C=C/c2ccc(O)c(OC)c2)ccc1O [curcumin, Curcumin, reference compound]	promotes the degradation	no effect						not
